Reference: a compilation of properties of binary mixtures (doi:10.1016/j.molliq.2017.08.014)

Assay: xn = mol fraction of the nth substance listed
Conditions: 101 kPa

CCOC(C)=O + CCCCn1cc[n+](C)c1.Cl[Fe-](Cl)(Cl)Cl
x2 = 0
Conditions	viscosity [mPa·s]
293.15 K	0.46
298.15 K	0.43
303.15 K	0.41
308.15 K	0.39
313.15 K	0.37
318.15 K	0.35
323.15 K	0.33

CCCCn1cc[n+](C)c1.[Cl][Fe-]([Cl])([Cl])[Cl] + CCOC(C)=O
viscosity [mPa·s]
Conditions	x1 = 0.1002	x1 = 0.1999	x1 = 0.3007	x1 = 0.3999	x1 = 0.5	x1 = 0.6001	x1 = 0.7	x1 = 0.7973	x1 = 0.9	x1 = 1
293.15 K	1.17	2.37	4.32	7.33	11.15	–	22.98	30.8	41.3	56.6
298.15 K	1.09	2.19	3.92	6.53	9.78	14.09	19.72	–	–	46
303.15 K	1.02	2.01	3.56	5.84	8.64	–	16.92	–	28.7	37.9
308.15 K	0.97	–	3.26	–	7.69	–	14.65	–	24.4	–
313.15 K	0.91	–	2.99	4.76	6.88	9.63	12.81	–	21.04	27
318.15 K	0.86	1.66	–	–	6.19	8.65	11.32	14.58	–	23.24
323.15 K	0.82	1.57	2.56	3.98	5.63	7.79	10.08	12.88	16.08	20.16
